From patent US20220297126A1, “Microfluidic Pipette Aspirators for Large-Scale Analysis of Single Cells, Clusters and Their Sub-Populations” (Texas Tech University System, priority 2019, published 2022)
Counter-ions that a name gives are not always drawn.

How the values were obtained:
Type in all cases: cell-based
MCF-7 cells = experiment: Identifying the state of drug treated cells (apoptotic, non-proliferating/quiescent, proliferating) in the microfluidic device; details: for cells identified as quiescent: 48 hours
Method: (§1) Drug Assays. Drug assays were conducted on the tumor cells trapped in the microfluidic device. Food and Drug Administration (FDA) approved chemotherapeutic medication Doxorubicin hydrochloride (Dox, Sigma Aldrich) was used on these cells. Dox was diluted with WFI (water for injection) for cell culture (Gibco) to make a 1 mM Dox solution and it was stored at 4° C. This stock solution of Dox was diluted to 100 μM using DMEM, and further 10-fold serial dilutions were done using DMEM or 1× Annexin Binding Buffer (Life technologies) to obtain the desired concentrations of 100 μM, 10 μM, 1 μM, 0.1 μM, 0.01 μM and 0.001 μM. For all experiments, Dox was prepared freshly by diluting it to 100 μM using DMEM and further dilutions were done to achieve the desired concentrations of Dox. The mixing of Dox with the cell samples and loading them in the microfluidic device was done within 2 minutes, followed by imaging of the loaded sample in the microfluidic device. After imaging the microfluidic device, it was incubated in 37° C. and 5% CO2 environment.
(§2) Cell staining, viability and apoptosis detection. Proliferation of cells in the microfluidic chip was monitored using CellTracker™ Green CMFDA dye (Life technologies). These counts were validated without staining and by using NucBlue™ Live ReadyProbes™ Reagent (Life technologies) to identify the cell nuclei and thus quantifying the cell counts. LIVE/DEAD® Cell Imaging Kit (Life technologies) was used to analyze viability of cells. The stain was made according to the manufacturer's protocol and was used to identify the live and dead cells. Alexa Fluor® 488 Annexin V (Life technologies) was used for detection of apoptosis. The cell sample and Dox dilution was done using 1× Annexin Binding Buffer (Life technologies). 100 μL of sample was prepared (80 μL cell sample+10 μL Annexin V+10 μL Dox) for conducting drug assays. The final concentrations of the Dox in 100 μL sample were 0.01 μM, 0.001 μM and 0.0001 μM. This sample was incubated at 37° C. and 5% CO2 for 30 minutes before loading in the microfluidic device. The images were taken at different time points for different studies. The microfluidic device was stored in the incubator at 37° C. and 5% CO2 between different image time points.
(§3) Identifying the state of drug treated cells. […] These single cells can exist in an apoptotic state or a non-proliferative (quiescent) state. Thus, identifying the state of the cell can give overall information about the drug resistance of cancer cells.
(§4) The apoptotic cells are dead cells; and the non-proliferating cells are the drug resistant cells which are live and have very low proliferative potential. The proliferating cells are also drug resistant cells, which multiply despite of the presence of drug. The drug response for these trapped cells is assessed at 0, 6, 12, 24, 48 hours at 0.01 μM, 0.001 μM and 0.0001 μM concentrations of Dox.
(§5) At the end of 48 hours, the non-proliferative cells were identified as quiescent cells. […] Similarly, 23%, 34% and 10% of cells were identified as quiescent for 0.01 μM, 0.001 μM and 0.0001 μM of dox and MB-231.

MB-231 cells = experiment: as above; details: for cells identified as quiescent: 48 hours
Method: as §1, §2, §3, §4, §5

MB-231 single cells = experiment: Proliferation of single cells in the microfluidic device in the presence of Dox
Method: as §1
(§6) Experimental Protocol. The experimental setup for single cell isolation consists of the microfluidic device, 200 μL single channel pipette (Eppendorf) and a motorized inverted system microscope (Olympus IX81). A sample of 2000 cells in 100 μL was loaded in the 6 mm reservoir (inlet) in the microfluidic device. A 200 μL single channel pipette was set at the 1 mm outlet and it was used to aspirate the cell sample. Flow is generated from the inlet reservoir due to the aspiration pressure and passes through the trapping array. As soon as a cell enters into the parking spots, it gets trap there due to the obstacle pillar. This setup is shown the by schematic in FIG. 2A.
(§7) The MCF-7 cells are tagged using a green fluorescent dye CMFDA (Life technologies) and are trapped in the microfluidic device using the same protocol. […] Media was added in the hydrodynamic height added on the reservoir to keep the cells from getting displaced from the parking spots. All the cell samples including the drug treated cells were handled with the same experimental procedure. The loading time of the cells after cell sample preparation is ˜5 seconds. The hydrodynamic height for the drug treated samples was given by media of corresponding drug concentration.
as §2
(§8) To understand the effect of different concentrations of dox on viability of single cells, the inventors conducted a dose response cell viability assay in the microfluidic device. […] From this viability curve, three concentrations were selected to study the proliferation potential of drug resistant MCF-7 and MB-231 single cells. As the […] on the proliferation rate, the lowest three concentrations were selected for this study. […]

MCF-7 single cells = experiment: as above; details: time not restated (period of 48 hours)
Method: as §1, §6, §7, §2, §8

MB231 cells = experiment: Mechanical characterization (Young's modulus) of drug treated cells in the μFPA device; details: FIG. 12A
Method: Total 1440 traps, 150 μL Inlet reservoir, Aspiration channel dimension 5×5×35 μm^3. In these figures, a schematic of the complete design. It has an inlet reservoir for holding cell sample. The inlet channel divides into 8 channels and all of them have dead ends. Aspiration traps are place on both sides of the inlet channels. Outlets of two aspiration arrays comes into an outlet channel. Except the first and last outlet channel where a single aspiration has outlets. It has total 1440 traps. This is the snapshot of the PDMS device. In the SEM image you can have a sense of the larger dimension of inlet and outlet channels compared to the aspiration channels.
FIGS. 10A to 10C show the mechanical characterization of cells in the device of the present invention.
FIGS. 12A and 12B show the sensitivity of different cells (MB231 and MCF7) to different drugs (blebbistatin and paclitaxel), and the Young's modulus of the cells. […] Also, cell cycle phases have altered cytoskeletal scaffold. Thus, the μFPA device is sensitive enough to measure cytoskeletal alterations caused by drug interventions and cell cycle phase.

| Compound | cells show drug resistance (MCF-7 cells; MCF-7, 0.0001 μM dox) | cells identified as quiescent (MCF-7 cells; MCF-7, 0.0001 μM dox) | cells show drug resistance (MCF-7 cells; MCF-7, 0.001 μM dox) | cells identified as quiescent (MCF-7 cells; MCF-7, 0.001 μM dox) | cells show drug resistance (MCF-7 cells; MCF-7, 0.01 μM dox) | cells identified as quiescent (MCF-7 cells; MCF-7, 0.01 μM dox) | cells show drug resistance (MB-231 cells; MB-231, 0.0001 μM dox) | cells identified as quiescent (MB-231 cells; MB-231, 0.0001 μM dox) | cells show drug resistance (MB-231 cells; MB-231, 0.001 μM dox) | cells identified as quiescent (MB-231 cells; MB-231, 0.001 μM dox) | cells show drug resistance (MB-231 cells; MB-231, 0.01 μM dox) | cells identified as quiescent (MB-231 cells; MB-231, 0.01 μM dox) | cells proliferated (MB-231 single cells; MB-231, 0.0001 μM dox, time not restated (period of 48 hours)) | cells proliferated (MB-231 single cells; MB-231, 0.001 μM dox, time not restated (period of 48 hours)) | cells proliferated (MB-231 single cells; MB-231, 0.01 μM dox, at the end of 48 hours) | cells proliferated (MB-231 single cells; MB-231, 0.01 μM dox, in 24 hours) | cells underwent proliferation (MCF-7 single cells; MCF-7, 0.0001 μM Dox) | cells underwent proliferation (MCF-7 single cells; MCF-7, 0.001 μM Dox) | cells underwent proliferation (MCF-7 single cells; MCF-7, 0.01 μM Dox) | cytoskeletal alteration seen as Young's modulus of the cells vs control (MB231 cells) |
| --- | --- | --- | --- | --- | --- | --- | --- | --- | --- | --- | --- | --- | --- | --- | --- | --- | --- | --- | --- | --- |
| COc1cccc2c1C(=O)c1c(O)c3c(c(O)c1C2=O)C[C@@](O)(C(=O)CO)C[C@@H]3O[C@H]1C[C@H](N)[C@H](O)[C@H](C)O1 [Dox, Doxorubicin hydrochloride] | ~90% | 6% | ~75% | 10% | ~60% | 8% | ~85% | 10% | ~80% | 34% | ~60% | 23% | ~70% | ~50% | ~40% | ~20% | ~80% | ~60% | ~45% |  |
| Cc1ccc2c(c1)C(=O)C1(O)CCN(c3ccccc3)C1=N2 (stereo not drawn) [blebbistatin] |  |  |  |  |  |  |  |  |  |  |  |  |  |  |  |  |  |  |  | cytoskeletal alternations in MB231 are induced |
| CC(=O)O[C@H]1C(=O)[C@@]2(C)[C@H]([C@H](OC(=O)c3ccccc3)[C@]3(O)C[C@H](OC(=O)[C@H](O)[C@@H](NC(=O)c4ccccc4)c4ccccc4)C(C)=C1C3(C)C)[C@]1(OC(C)=O)CO[C@@H]1C[C@@H]2O [paclitaxel] |  |  |  |  |  |  |  |  |  |  |  |  |  |  |  |  |  |  |  | cytoskeletal alternations in MB231 are induced |
